The source of these data is US11976069B2, “Inhibitors of histone deacetylase useful for the treatment or prevention of HIV infection” (Merck Sharp & Dohme LLC, priority 2019, dated 2024).

Where two headings read alike, the source gives them in different places.

One assay has as its target T1, HDAC1 (Homo sapiens, UniProt Q13547).
T1 construct: FLAG (C)
Put plainly: HDAC1 inhibition, modified Fluor-de-Lys assay. The assay is classed as biochemical. To be noted: 3 h pre-incubation, 0.3 nM enzyme, 20 μM substrate BML-KI104; read-out: HDAC-1 IC50. How it is done:
(§1) Human HDAC Enzyme Inhibitor FLUOR-DE-LYS Assay Materials
(§2) Recombinant human HDAC1, HDAC2, and HDAC3/SMRT heterodimer were prepared by Merck Research Laboratories. […] The eluted protein was then passed over an anti-HDAC1 immunoaffinity column to remove any complexes containing HDAC1. […]
(§3) The histone deacetylase activities of HDAC1, HDAC2, HDAC3, HDAC6, and HDAC8 were measured in modified Fluor-de-Lys assays in 384-well format. In this assay, HDAC enzymes are initially incubated with an ε-acetyl (or -trifluoroacetyl)-L-lysine-containing substrate with a C-terminal amide having aminomethylcoumarin as the amine component. HDACs cleave the ε-acetyl group, rendering the resulting product susceptible to AMC cleavage by trypsin. The released AMC is then detected by its fluorescence.
(§4) The HDAC 1, 2 assays employed buffer A, which contained 20 mM HEPES, pH 8.0, 1 mM MgCl2, 137 mM NaCl, 2.7 mM KCl, 0.05% BSA. The HDAC3/SMRT assay employed buffer B, consisting of 20 mM HEPES, pH 8.0, 1 mM MgCl2, 50 mM NaCl, 2.7 mM KCl, 0.05% BSA, 0.005% Tween 20, and 10 μM IP4. The HDAC6 assay employed buffer C, consisting of 20 mM HEPES, pH 8.0, 1 mM MgCl2, 137 mM NaCl, 2.7 mM KCl, 0.5 mM TCEP (Calbiochem) and 0.05% BSA. The HDAC8 assay employed buffer D, consisting of 20 mM HEPES, pH 8.0, 1 mM MgCl2, 100 mM NaCl, 20 mM KCl, 0.1% n-octyl-β-D-glucoside (Anatrace, Maumee, Ohio) and 0.05% BSA. All steps were performed at room temperature (23° C.). The assay was performed by pre-incubating serial dilutions of test compounds with the target HDAC prior to initiation with substrate. Each compound was titrated in a 10-point dose response, using a 1:3 fold dilution scheme, with 0.15 ul of solution added by ECHO555 to the plate, followed by the addition of 20 μl of the appropriate HDAC isoform diluted in appropriate assay buffer. […] Final conditions used for each assay were: 1. HDAC 1, 0.3 nM total enzyme, 20 μM substrate BML-KI104; 2. HDAC 2, 1.5 nM total enzyme, 40 μM substrate BML-KI104; 3. HDAC 3/SMRT, 0.3 nM total enzyme, 20 μM substrate BML-KI104; 4. HDAC 6, 1.3 nM total enzyme, 2.5 μM substrate BML-KI104; 5. HDAC 8, 1.3 nM total enzyme, 200 μM substrate BML-KI178; the final high dose of test compound was 30 μM. For potent compounds, 900 nM was used as the final high dose. The reactions were stopped and developed by addition of 30 ul of HDAC developer solution containing a saturating level of HDAC inhibitor as follows: 1.

The next assay deals with T2, HDAC2 (Homo sapiens, UniProt Q92769).
T2 construct: Full length human HDAC2-FLAG was expressed in baculovirus infected Sf9 cells; FLAG (C); host or cells: baculovirus infected Sf9 cells
T2 sequence (Q92769 whole entry): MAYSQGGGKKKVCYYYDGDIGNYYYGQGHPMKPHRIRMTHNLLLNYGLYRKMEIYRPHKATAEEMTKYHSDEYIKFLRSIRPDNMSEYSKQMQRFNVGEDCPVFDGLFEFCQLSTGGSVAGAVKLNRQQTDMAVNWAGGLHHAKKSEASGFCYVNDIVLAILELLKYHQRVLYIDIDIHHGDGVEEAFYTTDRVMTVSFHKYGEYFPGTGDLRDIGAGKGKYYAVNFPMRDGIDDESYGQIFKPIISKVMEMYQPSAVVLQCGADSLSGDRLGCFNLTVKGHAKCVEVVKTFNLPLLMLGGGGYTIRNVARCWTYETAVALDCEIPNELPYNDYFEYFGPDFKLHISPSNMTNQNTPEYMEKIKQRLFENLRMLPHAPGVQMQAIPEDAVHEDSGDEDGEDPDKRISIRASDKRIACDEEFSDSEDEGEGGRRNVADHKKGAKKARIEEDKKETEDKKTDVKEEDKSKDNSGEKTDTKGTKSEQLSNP
The experiment in a line: HDAC2 inhibition, modified Fluor-de-Lys assay. The assay is classed as biochemical. The note with it: 3 h pre-incubation, 40 μM substrate BML-KI104, read-out: HDAC-2 IC50. How it is done: as §1, §2, §3, §4

The next assay has as its target T3, HDAC3/SMRT heterodimer (Homo sapiens, UniProt O15379).
T3 construct: FLAG (C)
Put plainly: HDAC3/SMRT inhibition, modified Fluor-de-Lys assay. The assay is classed as biochemical. The note with it: 3 h pre-incubation, 0.3 nM enzyme, 20 μM substrate BML-KI104, read-out: HDAC-3 IC50. How it is done: as §1, §2, §3, §4

Another assay relates to KARN cells (Jurkat 2C4). Put plainly: KARN assay (luciferase induction). The assay is classed as cell-based. To be noted: Jurkat, ~20 hr, 100% induction = 2 μM SAHA. As to the method: KARN cells (Jurkat 2C4) were licensed from the laboratory of Dr. John Kam, Case Western Reserve University, School of Medicine. […] An atmosphere of 5% CO2 and 90% humidity was used for all culture work. Cells were split and reseeded into T175 flasks at a density of 0.2×10^6 cells/ml, in 40 ml of media, every 3-4 days.
Day 1: After the 3-4 day growth period, the cells were transferred from the T175 flask to a 50 ml conical tube and gently pelleted at 1000 rpm for 5 minutes. […] These flasks were returned to the incubator.
Day 2: Cell Preparation: The next day, the cells were transferred from each T175 flask to an individual 50 ml conical tube and gently pelleted at 1000 rpm for 5 minutes. The cells were gently resuspended in assay media (30 ml) and pelleted again. […] The cells were counted using the ViCell (Beckman Coulter, Brea, Calif.) and diluted as necessary. A Multidrop (Combi, Thermo Scientific, Waltham, Mass.) with a sterile head was used to seed the cells into the wells of a 384-well solid black plate with lid (Perkin Elmer, Waltham, Mass., catalog number 6007660) at 4000 cells/30 μl/well for the 5% NHS assay media and 6000 cells/30 μl/well for 0.1% NHS assay. The plates were covered and returned to the incubator prior to compound addition.
Compound Preparation: Solutions of control inhibitor suberoylanilide hydroxamic acid (SAHA; Sigma, catalog number SML0061) and test compounds in 100% DMSO were titrated into 384-well polypropylene plates (Labcyte, San Jose, Calif., catalog number P-05525) using a 20-point dose response and 2-fold dilutions. The reference compounds, DMSO and SAHA were then added to the compound plate. Using the Access system (Labcyte), 120 nl of these inhibitor and control solutions were added to the individual wells of the plates containing the cells, and the plates were then returned to the incubator for ˜20 hr (range from 18-24 hr). The final high concentration for SAHA and the test compounds in the assays was 40 μM. The final DMSO concentration in all wells was 0.4%. The minimal induction reference compound used was DMSO and the maximal induction reference compound used was SAHA (2 μM final concentration in the assay).
Day 3: The luciferase detection reagent was prepared by transferring the contents of one bottle of Steady-Glo buffer to one bottle of Steady-Glo substrate (Steady-Glo Luciferase Assay System, Promega, Madison, […]., catalog number E2520), followed by gently mixing until the substrate was thoroughly dissolved and the solution was equilibrated to room temperature. The cell culture assay plates were removed from the incubator and brought to room temperature (15 min). The Steady-Glo Reagent was added to the plates (30 μl/well), which were then covered with a black lid and incubated for 10 minutes at room temperature. The plates were then read for luminescence on an Envision (Perkin Elmer) using the ultrasensitive mode (US LUM), […] and 384-well aperture. Luminescence counts in the DMSO reference wells were considered as 0% induction, while those in the 2 μM SAHA reference wells were considered as 100% induction. Dose response curves were plotted as test compound concentration (X-axis) vs. percent activation (Y-axis) using a 4-parameter fit based on the Levenberg-Marquardt algorithm.

Setting [1] is: read-out: Karn EC50 with 0.1% NHS, 0.1% normal human serum.
Where [2] appears, read: read-out: Karn EC50 with 5% NHS, 5% normal human serum.

T3 sequence (O15379 whole entry): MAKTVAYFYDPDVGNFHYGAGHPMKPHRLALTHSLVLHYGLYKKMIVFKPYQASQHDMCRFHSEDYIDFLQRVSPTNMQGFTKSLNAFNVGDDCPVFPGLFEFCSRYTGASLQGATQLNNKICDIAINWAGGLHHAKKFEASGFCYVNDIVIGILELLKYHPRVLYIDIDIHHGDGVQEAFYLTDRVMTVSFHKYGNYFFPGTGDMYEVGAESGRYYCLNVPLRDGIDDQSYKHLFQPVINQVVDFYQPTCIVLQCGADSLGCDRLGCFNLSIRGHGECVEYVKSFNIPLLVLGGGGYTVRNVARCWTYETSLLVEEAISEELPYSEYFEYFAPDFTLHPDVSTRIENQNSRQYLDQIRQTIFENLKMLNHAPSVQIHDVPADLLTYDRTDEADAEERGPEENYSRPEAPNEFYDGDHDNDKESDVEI
T3 sequence (Q9Y618 1-899 partner limits assumed): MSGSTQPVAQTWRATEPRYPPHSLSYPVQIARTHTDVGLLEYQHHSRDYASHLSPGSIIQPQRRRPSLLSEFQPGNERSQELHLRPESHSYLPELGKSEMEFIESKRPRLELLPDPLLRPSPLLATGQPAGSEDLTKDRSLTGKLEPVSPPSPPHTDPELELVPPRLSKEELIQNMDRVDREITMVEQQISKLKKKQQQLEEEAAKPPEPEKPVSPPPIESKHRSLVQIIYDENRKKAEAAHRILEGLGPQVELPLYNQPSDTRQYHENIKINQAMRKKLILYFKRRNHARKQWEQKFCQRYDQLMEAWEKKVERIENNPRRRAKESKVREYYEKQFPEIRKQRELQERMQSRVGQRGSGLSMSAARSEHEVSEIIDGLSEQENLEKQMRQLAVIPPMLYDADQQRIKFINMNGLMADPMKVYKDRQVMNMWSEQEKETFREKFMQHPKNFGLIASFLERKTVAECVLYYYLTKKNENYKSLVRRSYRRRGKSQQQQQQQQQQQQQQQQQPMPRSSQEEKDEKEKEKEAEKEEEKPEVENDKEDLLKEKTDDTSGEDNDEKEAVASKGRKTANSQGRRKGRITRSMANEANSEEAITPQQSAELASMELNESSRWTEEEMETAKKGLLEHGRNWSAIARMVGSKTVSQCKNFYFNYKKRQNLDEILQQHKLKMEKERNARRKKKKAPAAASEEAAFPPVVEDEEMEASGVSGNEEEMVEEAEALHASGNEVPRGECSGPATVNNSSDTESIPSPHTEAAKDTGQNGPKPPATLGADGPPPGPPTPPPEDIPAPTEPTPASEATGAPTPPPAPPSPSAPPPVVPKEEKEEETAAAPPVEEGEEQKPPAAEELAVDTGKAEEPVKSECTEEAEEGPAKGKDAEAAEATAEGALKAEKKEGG
T1 sequence (Q13547 whole entry): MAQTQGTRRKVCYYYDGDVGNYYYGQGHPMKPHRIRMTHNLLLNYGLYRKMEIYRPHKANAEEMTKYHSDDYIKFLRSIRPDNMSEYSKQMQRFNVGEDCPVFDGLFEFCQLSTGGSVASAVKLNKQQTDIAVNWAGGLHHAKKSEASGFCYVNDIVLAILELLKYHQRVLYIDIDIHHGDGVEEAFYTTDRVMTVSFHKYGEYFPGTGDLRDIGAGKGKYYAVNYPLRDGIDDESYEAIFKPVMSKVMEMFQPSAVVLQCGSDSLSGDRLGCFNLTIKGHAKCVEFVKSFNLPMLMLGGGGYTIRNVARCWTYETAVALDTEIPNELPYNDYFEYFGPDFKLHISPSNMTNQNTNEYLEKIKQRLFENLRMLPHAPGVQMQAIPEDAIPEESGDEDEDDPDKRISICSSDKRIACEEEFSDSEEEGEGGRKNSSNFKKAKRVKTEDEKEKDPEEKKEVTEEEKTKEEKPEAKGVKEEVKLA

For the compound `CCC(=O)CCCCC[C@@H]1NC(=O)[C@H]2CC23CCN(CCCOCCn2ccc4cc(ccc4c2=O)-c2cnc1[nH]2)CC3` [Compound 11, (3S,6S)-6-(6-oxooctyl)-21-oxa-5,8,18,25,32-pentaazahexacyclo[23.2.2.1˜7,10˜0.1˜11,15˜0.1˜14,18˜0.0˜1,3˜] dotriaconta-7,9,11(31),12,14,16-hexaene-4,30-dione], the values for the IC50 on HDAC1, on HDAC2 ([…] enzyme) and on HDAC3/SMRT heterodimer were 0.11 nM, 22 nM and 2.6 nM, respectively. The EC50 in the assay on KARN cells (Jurkat 2C4) (setting [1]) and in the assay with KARN cells (Jurkat 2C4) (setting [2]) was greater than 40000 nM in each case.
Take `CCC(=O)CCCCC[C@@H]1NC(=O)[C@H]2CC23CCN(CCCCCCCCn2ccc4cc(ccc4c2=O)-c2cnc1[nH]2)CC3` [Compound 1, (3S,6S)-6-(6-oxooctyl)-5,8,18,27,34-pentaazahexacyclo[25.2.2.1˜7,10˜.1˜11,15˜.1˜14,18˜.0˜1,3˜]tetratriaconta-7,9,11(33),12,14,16-hexaene-4,32-dione]: the IC50 on HDAC1 was determined as 0.2 nM; on HDAC2 ([…] enzyme) it was 0.43 nM; at HDAC3/SMRT heterodimer it was 0.061 nM. Further, the EC50 is 14 nM with KARN cells (Jurkat 2C4) (setting [1]) and 16 nM with KARN cells (Jurkat 2C4) (setting [2]).
As for `CCC(=O)CCCCC[C@@H]1NC(=O)[C@H]2CC23CCN(CCOCCn2ccc4cc(ccc4c2=O)-c2cnc1[nH]2)CC3` [Compound 4, (1^1S,4S)-4-(6-oxooctyl)-6^1,6^2-dihydro-5^1H-9-oxa-3-aza-6(6,2)-isoquinolina-12(4,1)-piperidina-5(2,5)-imidazola-1(1,2)-cyclopropanadodecaphane-6^1,2-dione], the IC50 at HDAC1 was found to be 0.61 nM; on HDAC2 ([…] enzyme), 35 nM; at HDAC3/SMRT heterodimer it was 7.1 nM. The EC50 in the assay on KARN cells (Jurkat 2C4) (setting [1]) and with KARN cells (Jurkat 2C4) (setting [2]) was greater than 40000 nM throughout.
Take `CCC(=O)CCCCC[C@@H]1NC(=O)[C@H]2CC23CCN(CCCCCOc2ccc4cc(ccc4n2)-c2cnc1o2)CC3` [Compound 9]: the 50% inhibitory concentration (IC50) at HDAC1 worked out at 24 nM; on HDAC2 ([…] enzyme), 335 nM; at HDAC3/SMRT heterodimer it was 150 nM. Further, the EC50 in the assay on KARN cells (Jurkat 2C4) (setting [1]) and with KARN cells (Jurkat 2C4) (setting [2]) was greater than 40000 nM throughout.
As for `CCC(=O)CCCCC[C@@H]1NC(=O)[C@H]2CC23CCN(CCCCN2C4CCC2c2cc(ccc24)-c2cnc1[nH]2)CC3` (stereo partly drawn) [Compound 10, (3S,6S)-6-(6-oxooctyl)-5,8,20,25,31-pentaazaheptacyclo[23.2.2.1˜7,10˜.1˜11,15˜.0˜1,3˜.0˜14,19˜0.0˜16,20˜]hentriaconta-7,9,11(30),12,14-pentaen-4-one], the results for the IC50 on HDAC1, on HDAC2 (1.5 nM enzyme) and on HDAC3/SMRT heterodimer were 19 nM, 148 nM and 49 nM, respectively. Further, the concentration for a half-maximal effect (EC50) with KARN cells (Jurkat 2C4) (setting [1]) was 844 nM; in the assay with KARN cells (Jurkat 2C4) (setting [2]) it was 867 nM.
As to `CCC(=O)CCCCC[C@@H]1NC(=O)[C@H]2CC23CCN(CCCCN2C4CCC2c2c(cccc24)-c2cnc1[nH]2)CC3` (stereo partly drawn) [Compound 2, (11S,4S)-4-(6-oxooctyl)-61,62,63,64-tetrahydro-51H-3-aza-6(5,9)-1,4-epiminonaphthalena-11(4,1)-piperidina-5(2,5)-imidazola-1(1,2)-cyclopropanaundecaphan-2-one], the IC50 on HDAC1 was found to be 45 nM; on HDAC2 (1.5 nM enzyme) it was 176 nM; on HDAC3/SMRT heterodimer, 24 nM. For the same compound, the EC50 in the assay with KARN cells (Jurkat 2C4) (setting [1]) came to 6270 nM; in the assay with KARN cells (Jurkat 2C4) (setting [2]), 9060 nM.
Taken in the same sequence, the figures for `CCC(=O)CCCCC[C@@H]1NC(=O)[C@H]2CC23CCN(C/C=C/CN2C4CCC2c2cc(ccc24)-c2cnc1[nH]2)CC3` (stereo partly drawn) [Compound 3, (1^1S,4S,E)-4-(6-oxooctyl)-6^1,6^2,6^3,6^4-tetrahydro-5^1H-3-aza-6(6,9)-1,4-epiminonaphthalena-11(4,1)-piperidina-5(2,5)-imidazola-1(1,2)-cyclopropanaundecaphan-8-en-2-one] were 2.7 nM, 7 nM, 0.86 nM, 73 nM and 76 nM.
In the case of `CCC(=O)CCCCC[C@H](NC(=O)[C@H]1CC12CCN(CC)CC2)c1[nH]c2nc1C(=O)NCCCCCc1cccc-2c1` [Compound 13, (S)-6-ethyl-N-((S)-7-oxo-1-((Z)-9-oxo-11H-8-aza-1(2,4)-imidazola-2(1,3)-benzenacyclononaphane-15-yl)nonyl)-6-azaspiro[2.5]octane-1-carboxamide], the IC50 at HDAC1 came out at 109 nM; at HDAC3/SMRT heterodimer, 103 nM. The EC50 with KARN cells (Jurkat 2C4) (setting [1]) is greater than 40000 nM; with KARN cells (Jurkat 2C4) (setting [2]), 12000 nM.
With `CCC(=O)CCCCC[C@@H]1NC(=O)CN(C)CCCCOCCCCn2ccc3cc(ccc3c2=O)-c2cnc1[nH]2` [Compound 6, (3S)-7-methyl-3-(6-oxooctyl)-11,12-dihydro-21H-12-oxa-4,7-diaza-1(6,2)-isoquinolina-2(5,2)-imidazolacyclohexadecaphane-11,5-dione], the values for the IC50 on HDAC1, at HDAC2 ([…] enzyme) and on HDAC3/SMRT heterodimer were 28 nM, 595 nM and 248 nM, respectively. The figures for the half-maximal effective concentration (EC50) with KARN cells (Jurkat 2C4) (setting [1]) and with KARN cells (Jurkat 2C4) (setting [2]) were 2500 nM and 3510 nM, respectively.
